In patent US10975077B2 (Novira Therapeutics, Inc., priority 2016, dated 2021) one finds EC50 data, which are given here for 28 compounds.

As usually defined, the pEC50 is the EC50 on a negative log10 scale, so that one unit is a factor of ten.

pEC50: −log10 of the molar value.

The subject of the test is HBV (encapsidated HBV DNA, HepG2.2.15 cells). The experiment in a line: HBV replication inhibition assay, BDNA assay in HepG2.2.15 cells. The test is classed as cell-based. The conditions noted are these: Hepatitis B virus, HepG2.2.15, Activity in BDNA-assay. The gist of the method:
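Encapsidated HBV DNA in DNase-treated, proteinase K-lysed supernatant was measured by branched DNA after 6 days' compound exposure, refreshed on day 3, of HepG2.2.15 cells in 0.5% DMSO. Signals normalized to DMSO-treated wells; EC50 from nonlinear regression of inhibition against log concentration.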
Regarding `CN(C)C(=O)C1CN(C)C(=O)c2c3c(nn2C1)CCN(C(=O)Nc1ccc(F)c(Cl)c1)C3` (stereo not shown) [Compound 032, N2-(3-chloro-4-fluorophenyl)-N8,N8,10-trimethyl-11-oxo-1,3,4,7,8,9,10,11-octahydro-2H-pyrido[4′,3′:3,4]pyrazolo [1,5-a][1,4]diazepine-2,8-dicarboxamide], the pEC50 is 6.30 to 7.00. Take `CN1CC(C(C)(C)O)Cn2nc3c(c2C1=O)CN(C(=O)Nc1ccc(F)c(Cl)c1)CC3` (stereo not shown) [Compound 033, N-(3-chloro-4-fluorophenyl)-8-(2-hydroxypropan-2-yl)-10-methyl-11-oxo-3,4,8,9,10,11-hexahydro-1H-pyrido[4′,3′:3,4]pyrazolo[1,5-a][1,4]diazepine-2 (7H)-carboxamide]: the pEC50 is 7.00 to 9.00. With `CC(O)C1CN(C)C(=O)c2c3c(nn2C1)CCN(C(=O)Nc1ccc(F)c(Cl)c1)C3` (stereo not shown) [Compound 034, N-(3-chloro-4-fluorophenyl)-8-(1-hydroxyethyl)-10-methyl-11-oxo-1,3,4,7,8,9,10,11-octahydro-2H-pyrido[4′,3′:3,4]pyrazolo[1,5-a][1,4]diazepine-2-carboxamide], the pEC50 was 6.30 to 7.00.

For the compound `CCC(O)C1CN(C)C(=O)c2c3c(nn2C1)CCN(C(=O)Nc1ccc(F)c(Cl)c1)C3` (stereo not shown) [Compound 035], the pEC50 was 7.00 to 9.00. For `CN1CC(C(O)C2CC2)Cn2nc3c(c2C1=O)CN(C(=O)Nc1ccc(F)c(Cl)c1)CC3` (stereo not shown) [Compound 036], the pEC50 was 7.00 to 9.00. The value for `CN1CC(C(F)F)Cn2nc3c(c2C1=O)CN(C(=O)Nc1ccc(F)c(Cl)c1)CC3` (stereo not shown) [Compound 037, N-(3-chloro-4-fluorophenyl)-8-(difluoromethyl)-10-methyl-11-oxo-1,3,4,7,8,9,10,11-octahydro-2H-pyrido[4′,3′:3,4]pyrazolo[1,5-a][1,4]diazepine-2-carboxamide] was 7.00 to 9.00. As for `O=C(Nc1ccc(F)c(Cl)c1)N1CCc2nn3c(c2C1)C(=O)N(CC(F)F)CCC3` [Compound 038, N-(3-chloro-4-fluorophenyl)-10-(2,2-difluoroethyl)-11-oxo-1,3,4,7,8,9,10,11-octahydro-2H-pyrido[4′,3′:3,4]pyrazolo[1,5-a][1,4]diazepine-2-carboxamide], the pEC50 is 7.00 to 9.00. The value for `CC1CCn2nc3c(c2C(=O)N1C)CN(C(=O)Nc1ccc(F)c(Cl)c1)CC3` (stereo not shown) [Compound 039, N-(3-chloro-4-fluorophenyl)-9,10-dimethyl-11-oxo-1,3,4,7,8,9,10,11-octahydro-2H-pyrido[4′,3′:3,4]pyrazolo[1,5-a][1,4]diazepine-2-carboxamide] was 7.00 to 9.00; that for `COC(=O)c1cn2nc3c(c2c(=O)n1C)CN(C(=O)Nc1ccc(F)c(Cl)c1)CC3` [Compound 040, methyl 2-((3-chloro-4-fluorophenyl)carbamoyl)-9-methyl-10-oxo-1,2,3,4,9,10-hexahydropyrido[4′,3′:3,4]pyrazolo[1,5-a]pyrazine-8-carboxylate] was 6.30 to 7.00; that for `Cn1c(CO)cn2nc3c(c2c1=O)CN(C(=O)Nc1ccc(F)c(Cl)c1)CC3` [Compound 041, N-(3-chloro-4-fluorophenyl)-8-(hydroxymethyl)-9-methyl-10-oxo-3,4,9,10-tetrahydropyrido[4′,3′:3,4]pyrazolo[1,5-a]pyrazine-2 (1H)-carboxamide] was 7.00 to 9.00. For `Cn1c(C(=O)O)cn2nc3c(c2c1=O)CN(C(=O)Nc1ccc(F)c(Cl)c1)CC3` [Compound 042, 2-((3-chloro-4-fluorophenyl)carbamoyl)-9-methyl-10-oxo-1,2,3,4,9,10-hexahydropyrido[4′,3′:3,4]pyrazolo[1,5-a]pyrazine-8-carboxylic acid], the pEC50 was < 6.00.

Take `COC(=O)C1Cn2nc3c(c2C(=O)N1C)CN(C(=O)Nc1ccc(F)c(Cl)c1)CC3` (stereo not shown) [Compound 043, methyl 2-((3-chloro-4-fluorophenyl)carbamoyl)-9-methyl-10-oxo-1,2,3,4,7,8,9,10-octahydropyrido[4′,3′:3,4]pyrazolo[1,5-a]pyrazine-8-carboxylate]: the pEC50 was 6.30 to 7.00. The value for `CN1C(=O)c2c3c(nn2CC1CO)CCN(C(=O)Nc1ccc(F)c(Cl)c1)C3` (stereo not shown) [Compound 044, N-(3-chloro-4-fluorophenyl)-8-(hydroxymethyl)-9-methyl-10-oxo-3,4,7,8,9,10-hexahydropyrido[4′,3′:3,4]pyrazolo[1,5-a]pyrazine-2 (1H)-carboxamide] was 7.00 to 9.00; that for `CN1CCn2nc3c(c2C1=O)CN(C(=O)Nc1ccc(F)c(Cl)c1)CC3` [Compound 045, N-(3-chloro-4-fluorophenyl)-9-methyl-10-oxo-3,4,7,8,9,10-hexahydropyrido[4′,3′:3,4]pyrazolo [1,5-a]pyrazine-2 (1H)-carboxamide] was 7.00 to 9.00. In the case of `CN1CCCn2nc3c(c2C1)CN(C(=O)Nc1ccc(F)c(Cl)c1)CC3` [Compound 046, N-(3-chloro-4-fluorophenyl)-10-methyl-1,3,4,7,8,9,10,11-octahydro-2H-pyrido[4′,3′:3,4]pyrazolo[1,5-a][1,4]diazepine-2-carboxamide], the pEC50 is < 6.00. For `CN1CC(C(O)CC2CC2)Cn2nc3c(c2C1=O)CN(C(=O)Nc1ccc(F)c(Cl)c1)CC3` (stereo not shown) [Compound 047, N-(3-chloro-4-fluoro-phenyl)-8-(2-cyclopropyl-1-hydroxy-ethyl)-10-methyl-1-oxo-1,3,4,7,8,9-hexahydropyrido[2,3]pyrazolo[2,4-b][1,4]diazepine-2-carboxamide], the negative logarithm of the EC50 (pEC50) was 7.00 to 9.00. For the compound `C[C@@H]1Cc2nn3c(c2CN1C(=O)Nc1ccc(F)c(Cl)c1)C(=O)N(CC(C)(C)O)CCC3` [Compound 048], the pEC50 was 6.30 to 7.00.

In the case of `C[C@@H]1Cc2nn3c(c2CN1C(=O)Nc1ccc(F)c(Cl)c1)C(=O)N(CCO)CCC3` [Compound 049, (3R)— N-(3-chloro-4-fluorophenyl)-10-(2-hydroxyethyl)-3-methyl-11-oxo-1,3,4,7,8,9,10,11-octahydro-2H-pyrido[4′,3′:3,4]pyrazolo[1,5-a][1,4]diazepine-2-carboxamide], the pEC50 was 7.00 to 9.00.

`CNC1CN(C)C(=O)c2c3c(nn2C1)CCN(C(=O)Nc1ccc(F)c(Cl)c1)C3` (stereo not shown) [Compound 050, N-(3-chloro-4-fluorophenyl)-10-methyl-8-(methylamino)-11-oxo-1,3,4,7,8,9,10,11-octahydro-2H-pyrido[4′,3′:3,4]pyrazolo[1,5-a][1,4]diazepine-2-carboxamide]: the pEC50 is 6.30 to 7.00. Then `O=C(Nc1ccc(F)c(Cl)c1)N1CCc2nn3c(c2C1)C(=O)N(CC(F)(F)F)CC(CO)C3` (stereo not shown) [Compound 051, N-(3-chloro-4-fluorophenyl)-8-(hydroxymethyl)-11-oxo-10-(2,2,2-trifluoroethyl)-1,3,4,7,8,9,10,11-octahydro-2H-pyrido[4′,3′: 3,4]pyrazolo[1,5-a][1,4]diazepine-2-carboxamide], with 7.00 to 9.00; and `CCOC(=O)C1(C)CN(C)C(=O)c2c3c(nn2C1)CCN(C(=O)Nc1ccc(F)c(Cl)c1)C3` (stereo not shown) [Compound 052, ethyl 2-((3-chloro-4-fluorophenyl)carbamoyl)-8,10-dimethyl-11-oxo-1,3,4,7,8,9,10,11-octahydro-2H-pyrido[4′,3′:3,4]pyrazolo[1,5-a][1,4]diazepine-8-carboxylate], with 6.30 to 7.00. With `CN1CC(C)(CO)Cn2nc3c(c2C1=O)CN(C(=O)Nc1ccc(F)c(Cl)c1)CC3` (stereo not shown) [Compound 053, N-(3-chloro-4-fluorophenyl)-8-(hydroxymethyl)-8,10-dimethyl-11-oxo-1,3,4,7,8,9,10,11-octahydro-2H-pyrido[4′,3′:3,4]pyrazolo[1,5-a][1,4]diazepine-2-carboxamide], the pEC50 was 7.00 to 9.00. As for `CN1CC(N2CCC(F)(F)C2)Cn2nc3c(c2C1=O)CN(C(=O)Nc1ccc(F)c(Cl)c1)CC3` (stereo not shown) [Compound 054, N-(3-chloro-4-fluorophenyl)-8-(3,3-difluoropyrrolidin-1-yl)-10-methyl-11-oxo-1,3,4,7,8,9,10,11-octahydro-2H-pyrido[4′,3′:3,4]pyrazolo[1,5-a][1,4]diazepine-2-carboxamide], the pEC50 was 6.30 to 7.00.

For the compound `CN1CC(N2CCCCC2)Cn2nc3c(c2C1=O)CN(C(=O)Nc1ccc(F)c(Cl)c1)CC3` (stereo not shown) [Compound 055, N-(3-chloro-4-fluorophenyl)-10-methyl-11-oxo-8-(piperidin-1-yl)-1,3,4,7,8,9,10,11-octahydro-2H-pyrido[4′,3′:3,4]pyrazolo[1,5-a][1,4]diazepine-2-carboxamide], the pEC50 is 6.30 to 7.00. Turning to `CN1CC(N2CCC(F)(F)CC2)Cn2nc3c(c2C1=O)CN(C(=O)Nc1ccc(F)c(Cl)c1)CC3` (stereo not shown) [Compound 056, N-(3-chloro-4-fluorophenyl)-8-(4,4-difluoropiperidin-1-yl)-10-methyl-11-oxo-1,3,4,7,8,9,10,11-octahydro-2H-pyrido[4′,3′:3,4]pyrazolo[1,5-a][1,4]diazepine-2-carboxamide], the negative-log EC50 (pEC50) is 6.30 to 7.00.

With `COC(=O)C1CCn2nc3c(c2C(=O)N1C)CN(C(=O)Nc1ccc(F)c(Cl)c1)CC3` (stereo not shown) [Compound 057, methyl 2-((3-chloro-4-fluorophenyl)carbamoyl)-10-methyl-11-oxo-1,3,4,7,8,9,10,11-octahydro-2H-pyrido[4′,3′:3,4]pyrazolo[1,5-a][1,4]diazepine-9-carboxylate], the pEC50 is 6.30 to 7.00.

`CN1C(=O)c2c3c(nn2CCC1C(=O)O)CCN(C(=O)Nc1ccc(F)c(Cl)c1)C3` (stereo not shown) [Compound 058, 2-((3-chloro-4-fluorophenyl)carbamoyl)-10-methyl-11-oxo-1,3,4,7,8,9,10,11-octahydro-2H-pyrido[4′,3′:3,4]pyrazolo[1,5-a][1,4]diazepine-9-carboxylic acid]: the pEC50 is < 6.00.

For `CN(C)C(=O)C1CCn2nc3c(c2C(=O)N1C)CN(C(=O)Nc1ccc(F)c(Cl)c1)CC3` (stereo not shown) [Compound 059, N2-(3-chloro-4-fluorophenyl)-N9,N9,10-trimethyl-11-oxo-1,3,4,7,8,9,10,11-octahydro-2H-pyrido[4′,3′:3,4]pyrazolo[1,5-a][1,4]diazepine-2,9-dicarboxamide], the pEC50 is 6.30 to 7.00.
